Source: paper PMC9596752, “Investigation of anti-diabetic potential and molecular simulation studies of dihydropyrimidinone derivatives” (Frontiers in Endocrinology, 2022)
Converted amounts (≈) assume the structure as drawn.

Target: α-glucosidase
Test: in vitro α-glucosidase inhibition assay, absorbance at […] nm
Type: biochemical, Saccharomyces cerevisiae

O=C1NC2=C(C(=O)N(Cc3ccccc3)C2)C(c2ccc(O)cc2)N1 (stereo not shown) [A, 6-benzyl-4-(4-hydroxyphenyl)-3,4,6,7-tetrahydro-1H-pyrrolo[3,4-d]pyrimidine-2,5-dione]
IC50: 1.02 µg/mL (≈ 3.04 µM)
